# Reference: PubChem BioAssay (NCI)
#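 Step 1: Grow cells in 96-well plates. Step 2: Expose to compound for 48 hours at 5 concentrations. Step 3: Interpolate endpoints linearly; if unreached, use highest concentration. GI50: concentration for 50% inhibition of growth. TGI: concentration producing complete growth inhibition.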
# Experiments:
# Experiment in all cases: growth of human tumour cells (NCI), 48 h
# T-47D breast = test system: T-47D breast
# HCT-116 colon = test system: HCT-116 colon
# NCI-H522 lung = test system: NCI-H522 lung
# SNB-19 CNS = test system: SNB-19 CNS
# LOX IMVI melanoma = test system: LOX IMVI melanoma
# MCF7 breast = test system: MCF7 breast
# SF-295 CNS = test system: SF-295 CNS
# MALME-3M melanoma = test system: MALME-3M melanoma
# UO-31 renal = test system: UO-31 renal
# SK-OV-3 ovarian = test system: SK-OV-3 ovarian
# MOLT-4 leukemia = test system: MOLT-4 leukemia
# HOP-62 NSCLC = test system: HOP-62 NSCLC
# KM12 colon = test system: KM12 colon
# OVCAR-3 ovarian = test system: OVCAR-3 ovarian
# K-562 leukemia = test system: K-562 leukemia
# SF-268 CNS = test system: SF-268 CNS
# NCI-H460 lung = test system: NCI-H460 lung
# HOP-92 NSCLC = test system: HOP-92 NSCLC
# CCRF-CEM leukemia = test system: CCRF-CEM leukemia
# A549 NSCLC = test system: A549 NSCLC
# RPMI-8226 leukemia = test system: RPMI-8226 leukemia
# IGROV1 ovarian = test system: IGROV1 ovarian
# COLO 205 colon = test system: COLO 205 colon
# HL-60(TB) leukemia = test system: HL-60(TB) leukemia
# UACC-257 melanoma = test system: UACC-257 melanoma
# OVCAR-5 ovarian = test system: OVCAR-5 ovarian
# U251 CNS = test system: U251 CNS
# NCI-H23 lung = test system: NCI-H23 lung
# SF-539 CNS = test system: SF-539 CNS
# HCT-15 colon = test system: HCT-15 colon
# DU-145 prostate = test system: DU-145 prostate
# RXF 393 renal = test system: RXF 393 renal
# NCI-H226 lung = test system: NCI-H226 lung
# SW-620 colon = test system: SW-620 colon
# TK-10 renal = test system: TK-10 renal
# MDA-MB-435 = test system: MDA-MB-435
# M14 melanoma = test system: M14 melanoma
# NCI/ADR-RES ovarian = test system: NCI/ADR-RES ovarian
# SK-MEL-5 melanoma = test system: SK-MEL-5 melanoma
# MDA-MB-468 breast = test system: MDA-MB-468 breast
# SN12C renal = test system: SN12C renal
# CAKI-1 renal = test system: CAKI-1 renal
# HCC-2998 colon = test system: HCC-2998 colon
# HT29 colon = test system: HT29 colon
# SNB-75 CNS = test system: SNB-75 CNS
# HS 578T breast = test system: HS 578T breast
# SR leukemia = test system: SR leukemia
# SK-MEL-28 melanoma = test system: SK-MEL-28 melanoma
# BT-549 breast = test system: BT-549 breast
# A498 renal = test system: A498 renal
# OVCAR-8 ovarian = test system: OVCAR-8 ovarian
# UACC-62 melanoma = test system: UACC-62 melanoma
# EKVX NSCLC = test system: EKVX NSCLC
# MDA-MB-231 breast = test system: MDA-MB-231 breast
# OVCAR-4 ovarian = test system: OVCAR-4 ovarian
# 786-0 renal = test system: 786-0 renal
# PC-3 prostate = test system: PC-3 prostate
# ACHN renal = test system: ACHN renal
# SK-MEL-2 melanoma = test system: SK-MEL-2 melanoma
structure (smiles),measurement,setting,value
COc1ccc(S(=O)(=O)Nc2ccc(-c3ccc4c(c3)NC(=O)/C4=C\c3ccc[nH]3)cc2)cc1OC,GI50,T-47D breast,0.0285 µM
same,TGI,T-47D breast,1.27 µM
same,GI50,HCT-116 colon,4.72 µM
same,TGI,HCT-116 colon,88.5 µM
same,GI50,NCI-H522 lung,3.25 µM
same,TGI,NCI-H522 lung,23 µM
same,GI50,SNB-19 CNS,12.6 µM
same,TGI,SNB-19 CNS,26.3 µM
same,GI50,LOX IMVI melanoma,6.39 µM
same,TGI,LOX IMVI melanoma,27.6 µM
same,GI50,MCF7 breast,0.0476 µM
same,TGI,MCF7 breast,11.1 µM
same,GI50,SF-295 CNS,3.12 µM
same,TGI,SF-295 CNS,15.1 µM
same,GI50,MALME-3M melanoma,4.26 µM
same,TGI,MALME-3M melanoma,15.9 µM
same,GI50,UO-31 renal,12.9 µM
same,TGI,UO-31 renal,27.4 µM
same,GI50,SK-OV-3 ovarian,3.59 µM
same,TGI,SK-OV-3 ovarian,15.1 µM
same,GI50,MOLT-4 leukemia,14.8 µM
same,TGI,MOLT-4 leukemia,> 100 µM
same,GI50,HOP-62 NSCLC,10.2 µM
same,TGI,HOP-62 NSCLC,23.3 µM
same,GI50,KM12 colon,9.03 µM
same,TGI,KM12 colon,> 100 µM
same,GI50,OVCAR-3 ovarian,8.4 µM
same,TGI,OVCAR-3 ovarian,27.5 µM
same,GI50,K-562 leukemia,11.9 µM
same,TGI,K-562 leukemia,> 100 µM
same,GI50,SF-268 CNS,15.3 µM
same,TGI,SF-268 CNS,55.2 µM
same,GI50,NCI-H460 lung,0.343 µM
same,TGI,NCI-H460 lung,11.3 µM
same,GI50,HOP-92 NSCLC,3.43 µM
same,TGI,HOP-92 NSCLC,18.3 µM
same,GI50,CCRF-CEM leukemia,16.1 µM
same,TGI,CCRF-CEM leukemia,> 100 µM
same,GI50,A549 NSCLC,2.18 µM
same,TGI,A549 NSCLC,14.2 µM
same,GI50,RPMI-8226 leukemia,8.33 µM
same,TGI,RPMI-8226 leukemia,> 100 µM
same,GI50,IGROV1 ovarian,12.9 µM
same,TGI,IGROV1 ovarian,33 µM
same,GI50,COLO 205 colon,10.2 µM
same,TGI,COLO 205 colon,83.3 µM
same,GI50,HL-60(TB) leukemia,8.35 µM
same,TGI,HL-60(TB) leukemia,> 100 µM
same,GI50,UACC-257 melanoma,0.691 µM
same,TGI,UACC-257 melanoma,12.1 µM
same,GI50,OVCAR-5 ovarian,10.6 µM
same,TGI,OVCAR-5 ovarian,23.8 µM
same,GI50,U251 CNS,10.1 µM
same,TGI,U251 CNS,23.2 µM
same,GI50,NCI-H23 lung,0.194 µM
same,TGI,NCI-H23 lung,14.7 µM
same,GI50,SF-539 CNS,1.66 µM
same,TGI,SF-539 CNS,11 µM
same,GI50,HCT-15 colon,13.7 µM
same,TGI,HCT-15 colon,> 100 µM
same,GI50,DU-145 prostate,4.88 µM
same,TGI,DU-145 prostate,20.8 µM
same,GI50,RXF 393 renal,1.4 µM
same,TGI,RXF 393 renal,6.74 µM
same,GI50,NCI-H226 lung,1.82 µM
same,TGI,NCI-H226 lung,12.8 µM
same,GI50,SW-620 colon,8.53 µM
same,TGI,SW-620 colon,71.7 µM
same,GI50,TK-10 renal,3.3 µM
same,TGI,TK-10 renal,18.7 µM
same,GI50,MDA-MB-435,6.35 µM
same,TGI,MDA-MB-435,38.9 µM
same,GI50,M14 melanoma,2.4 µM
same,TGI,M14 melanoma,17.4 µM
same,GI50,NCI/ADR-RES ovarian,14 µM
same,TGI,NCI/ADR-RES ovarian,> 100 µM
same,GI50,SK-MEL-5 melanoma,3.35 µM
same,TGI,SK-MEL-5 melanoma,22.1 µM
same,GI50,MDA-MB-468 breast,0.0309 µM
same,TGI,MDA-MB-468 breast,0.113 µM
same,GI50,SN12C renal,12.4 µM
same,TGI,SN12C renal,30.8 µM
same,GI50,CAKI-1 renal,6.18 µM
same,TGI,CAKI-1 renal,19.9 µM
same,GI50,HCC-2998 colon,5.74 µM
same,TGI,HCC-2998 colon,> 100 µM
same,GI50,HT29 colon,7.61 µM
same,TGI,HT29 colon,> 100 µM
same,GI50,SNB-75 CNS,1.37 µM
same,TGI,SNB-75 CNS,21.2 µM
same,GI50,HS 578T breast,4.6 µM
same,TGI,HS 578T breast,61.8 µM
same,GI50,SR leukemia,0.86 µM
same,TGI,SR leukemia,> 100 µM
same,GI50,SK-MEL-28 melanoma,0.886 µM
same,TGI,SK-MEL-28 melanoma,7.07 µM
same,GI50,BT-549 breast,2.23 µM
same,TGI,BT-549 breast,9.35 µM
same,GI50,A498 renal,14.3 µM
same,TGI,A498 renal,28.5 µM
same,GI50,OVCAR-8 ovarian,11.2 µM
same,TGI,OVCAR-8 ovarian,28.9 µM
same,GI50,UACC-62 melanoma,0.75 µM
same,TGI,UACC-62 melanoma,8.59 µM
same,GI50,EKVX NSCLC,0.0835 µM
same,TGI,EKVX NSCLC,17.5 µM
same,GI50,MDA-MB-231 breast,3.82 µM
same,TGI,MDA-MB-231 breast,15.3 µM
same,GI50,OVCAR-4 ovarian,1.76 µM
same,TGI,OVCAR-4 ovarian,11.8 µM
same,GI50,786-0 renal,3.43 µM
same,TGI,786-0 renal,15.2 µM
same,GI50,PC-3 prostate,10.1 µM
same,TGI,PC-3 prostate,41.3 µM
same,GI50,ACHN renal,6.99 µM
same,TGI,ACHN renal,20.2 µM
same,GI50,SK-MEL-2 melanoma,14.3 µM
same,TGI,SK-MEL-2 melanoma,33.8 µM
